Our source for the molar enthalpy values is the NIST ThermoML archive (doi:10.1016/j.tca.2012.03.018).

Molecules are shown by their SMILES. ± gives the expanded uncertainty stated by the source.

A short description of the data set: molar enthalpy of vaporization or sublimation. Conditions: Liquid.

On to `CCn1cc[n+](C)c1.O=S(=O)([N-]S(=O)(=O)C(F)(F)F)C(F)(F)F`, for which the molar enthalpy (525 K) was 26.4 ± 0.717 kcal/mol. `CCCCOC(=O)c1ccccc1C(=O)OCCCC` [dibutyl phthalate]: the molar enthalpy (393 K) stood at 20.1 ± 0.382 kcal/mol.

With `CCCCCCCCCCCCCCCCCC(=O)OCC` [ethyl octadecanoate], the molar enthalpy (373 K) was found to be 22 ± 0.335 kcal/mol and the molar enthalpy (383.5 K, Transpiration) came to 22.3 ± 0.335 kcal/mol. As to `CCCCCCCCCCCCCCCC` [hexadecane], the molar enthalpy was 17.9 ± 0.191 kcal/mol (333.5 K, Transpiration) and 17.8 ± 0.382 kcal/mol (353 K). With `CCCCCCCCCCCCCCCCCC(=O)OC` [methyl octadecanoate], the molar enthalpy (353 K) stood at 21.6 ± 0.239 kcal/mol.
